How the values were obtained:
Type in all cases: binding, Bubalus bubalis
[1] = molecular target: T1, OBP1a (bnOBP isoform 1a; also printed 1OBPa); assay: fluorescence titration; conditions: 50 mM Tris-HCl, 300 mM NaCl, pH 8.0; 2 µM protein; fluorescent probe; read-out: dissociation constant
T1 construct: gene OBP

[2] = molecular target: T1, OBP1a (bnOBP isoform 1a; also printed 1OBPa); assay: competitive 1-NPN displacement fluorescence; conditions: 2 µM protein, 2 µM 1-NPN, 50 mM Tris-HCl, 300 mM NaCl, pH 8.0; competitive with 1-NPN
[3] = molecular target: T1, OBP1a (bnOBP isoform 1a; also printed 1OBPa); assay: competitive 1-NPN displacement fluorescence; conditions: 2 µM protein, 2 µM 1-NPN, 50 mM Tris-HCl, 300 mM NaCl, pH 8.0; competitive with 1-NPN; remark: listed apart in the source
Source text: competitive 1-NPN displacement fluorescence on OBP1a (bnOBP isoform 1a; also printed 1OBPa)

c1ccc(Nc2cccc3ccccc23)cc1 [N-phenyl-1-naphthylamine]
Kd [1]: 0.7 µM

CCCCCCCC/C=C\CCCCCCCC(=O)O [oleic acid]
Ki [2]: 4.2 µM

Cc1ccc(O)cc1 [p-cresol]
Ki [3]: 266 µM
Ki [2]: 3.5 µM
